# Test results taken from paper PMC11466185, “Mechanisms and efficacy of small molecule latency-promoting agents to inhibit HIV reactivation ex vivo” (JCI Insight, 2024).
# Values joined by “and” are separate entries in the source; they are usually repeats but may differ in a detail not shown here. Equal values may be shown once.
# Assays:
# [1] = tested on: HIV transcripts (TAR, LLTR, Pol, PolyA, TatRev); assay: Cell-associated HIV transcripts (RT-ddPCR) 6 days after anti-CD3/CD28 activation of PBMCs from ART-suppressed PWH; type: cell-based; conditions: for Pol / PolyA / TAR / TatRev: DMSO αCD3/28 = 100, Fig 4A; for LLTR/TAR / PolyA/LLTR / TatRev/PolyA: DMSO+CD3/28 = 1, Fig 4B, C and D
# Procedure: Next, we evaluated the ability of the candidate LPAs to sustain the inhibitory effects during a prolonged ex vivo culture. To this end, PBMCs were cultured in the presence of individual drugs in DMSO or in DMSO alone as control, activated (anti-CD3/CD28), and harvested after 6 days. […] However, we decided to test the drug on day 6 because extra cells were available from some study participants.
# Each drug was tested in PBMCs from at least 6 ART-suppressed study participants (except for KRIBB11, n = 5). PBMCs were aliquoted into wells at 6 × 10^6 cells/well. After activation, the cells were cultured with antiretrovirals in the presence of individual drugs in DMSO or DMSO alone as control. All conditions were tested in the presence of CD3/28 T cell–activating beads, except for the unactivated DMSO condition. After 6 days, total cellular RNA was extracted, and the progression through different stages of HIV transcription was quantified by measuring the levels of initiated (TAR), 5′ elongated (LLTR), midtranscribed/unspliced (Pol), completed (PolyA), and multiply spliced (TatRev) HIV transcripts. (A) The levels of all HIV transcripts were normalized to 1 μg of total cellular RNA and expressed as a percentage of the activated DMSO control (% of activated DMSO). Medians are shown as well as the individual values per study participant in different colors. (B–D) The effect of each drug on HIV transcriptional progression after activation was analyzed by the ratio of one HIV transcript to another. Ratios are independent of HIV infection frequency or normalization to cell numbers. Shown are the proportion of (B) all HIV transcripts that are elongated (LLTR/TAR), (C) elongated HIV transcripts that are completed (PolyA/LLTR), and (D) completed transcripts that are multiply spliced (TatRev/PolyA). Medians and IQR are presented, along with the individual values per study participant in different colors. P values were calculated using Wilcoxon’s signed-rank test: *P < 0.05.
# PBMCs were isolated from fresh venous blood from 16 ART-suppressed HIV-infected study participants using Ficoll density gradient centrifugation. The cells were seeded at 6 × 10^6 cells/well and cultured with antiretrovirals (nevirapine and indinavir) to prevent new infection. On the next day, PBMCs were activated with anti-CD3/CD28–coated beads (Invitrogen) in the presence of 20 U/mL IL-2 and individual drugs in DMSO or DMSO alone as a control. Since we were limited in the PBMC yield per study participant, different study participants were used for different experiments (such as the initial screen, dose response, different time points, and studies in activated vs. unstimulated cells). In addition, the yields of PBMCs were sometimes insufficient to test all drugs for a given question or experiment.
# For quantification of cell-associated HIV transcripts, PBMCs were harvested either after 24 hours or after 6 days. The cell viabilities were measured by trypan blue staining; then the cells were pelleted by centrifuging at 300g for 6 minutes and stored at –80°C. For quantification of virion-associated HIV RNA, cell culture supernatant was collected from 6 × 10^6 PBMCs that were treated and activated for 6 days as described above. Residual cells and cellular debris were subsequently removed from the supernatant by differential centrifugation (300g for 6 minutes, then 20,000g for 10 minutes), and the supernatant was stored at –80°C.
# Total cellular DNA and RNA were extracted in parallel using Trireagent (Molecular Research Center) according to the manufacturer’s instructions, except for study participants 2147 and 2461 (Figure 4), for whom DNA and RNA were extracted using the QIAGEN AllPrep DNA/RNA/miRNA Universal Kit with on-column DNase I treatment of the RNA and the manufacturer’s modification to enhance recovery of short transcripts.
# PBMCs = assay: Total number of live cells (proliferation) by trypan blue staining at day 6; type: cell-based, human; conditions: for Total live cell numbers (proliferation) compared with activated DMSO (in words) / Total number of live cells (Fig 6A): day 6; for Total live cell numbers (proliferation) compared with activated DMSO (in words): Figure 6A; for Fig 6B: total live cells relative to DMSO+CD3/28: DMSO+CD3/28 = 100
# Procedure: Some of our candidate LPAs can block the effects of T cell activation, which could affect T cell proliferation. Therefore, we evaluated the extent to which variations in the level of infected cells may contribute to reductions in different HIV RNA transcripts. We measured the total number of viable cells (as a measure of proliferation) and the conserved U3-U5 LTR HIV DNA region (as a measure of total infection frequency) at day 6.
# (A) After 6 days, the total number of live cells was measured by trypan blue staining and then normalized to the levels of the activated DMSO (% of activated DMSO). All conditions were tested in the presence of CD3^+/CD28^+ T cell–activating beads, except for the unactivated DMSO condition. Bars indicate medians, and different colors indicate individual study participants. Comparisons were performed using Wilcoxon’s signed-rank test. (B) Total cellular DNA was extracted, and the levels of U3-U5 HIV DNA were measured to quantify infection frequency at 6 days. HIV DNA levels were normalized to copies per 10^6 cells using the input of cellular DNA (assuming 1 μg of total DNA corresponds to 160,000 cells) and then normalized to the activated DMSO control (% of activated DMSO). Bars indicate medians, and different colors indicate individual study participants.
smiles,measurement,setting,value
CO[C@H]([C@@H](C)[C@H]1O[C@]1(C)C[C@H](C)/C=C/C=C(\C)[C@H]1O[C@@H](CC(=O)O)CC[C@@H]1C)[C@@H](C)O [herboxidiene],LLTR HIV transcripts (DMSO αCD3/28 = 100),"[1]; 5nM, 6 days after αCD3/28 activation, each column one participant",64.2 and 58.48 and 54.61 and 276.32 and 371.71 and 49.79 and 55 and 16.86
same,Pol,[1]; participant 150b,43.29
same,PolyA,[1]; participant 150b,23.53
same,TAR,[1]; participant 150b,92.09
same,TatRev,[1]; participant 150b,2.69
same,LLTR/TAR,[1]; participant 150b,0.5407
same,PolyA/LLTR,[1]; participant 150b,0.4726
same,TatRev/PolyA,[1]; participant 150b,0.11
same,Pol,[1]; participant 1379,47.94
same,PolyA,[1]; participant 1379,28.08
same,TAR,[1]; participant 1379,40.01
same,TatRev,[1]; participant 1379,171.43
same,LLTR/TAR,[1]; participant 1379,1.462
same,PolyA/LLTR,[1]; participant 1379,0.4801
same,TatRev/PolyA,[1]; participant 1379,6.105
same,Pol,[1]; participant 2027,133.33
same,PolyA,[1]; participant 2027,36.92
same,TAR,[1]; participant 2027,82.42
same,TatRev,[1]; participant 2027,0
same,LLTR/TAR,[1]; participant 2027,0.6673
same,PolyA/LLTR,[1]; participant 2027,0.6713
same,Pol,[1]; participant 2147a,105.88
same,PolyA,[1]; participant 2147a,21.76
same,TAR,[1]; participant 2147a,362.23
same,TatRev,[1]; participant 2147a,28.42
same,LLTR/TAR,[1]; participant 2147a,0.1772
same,PolyA/LLTR,[1]; participant 2147a,0.339
same,TatRev/PolyA,[1]; participant 2147a,0.3013
same,Pol,[1]; participant 2161,169.45
same,PolyA,[1]; participant 2161,268.67
same,TAR,[1]; participant 2161,215.96
same,TatRev,[1]; participant 2161,176.87
same,LLTR/TAR,[1]; participant 2161,1.7212
same,PolyA/LLTR,[1]; participant 2161,0.72
same,TatRev/PolyA,[1]; participant 2161,0.6583
same,Pol,[1]; participant 2256,18.46
same,PolyA,[1]; participant 2256,16.27
same,TAR,[1]; participant 2256,31.94
same,TatRev,[1]; participant 2256,1.4
same,LLTR/TAR,[1]; participant 2256,0.5278
same,PolyA/LLTR,[1]; participant 2256,0.9648
same,PolyA,[1]; participant 2461,1692.31
same,TAR,[1]; participant 2461,52.19
same,LLTR/TAR,[1]; participant 2461,5.294
same,PolyA/LLTR,[1]; participant 2461,6.125
same,LLTR/TAR,[1]; participant 2747,0
same,Pol,[1]; participant 5557,23.16
same,PolyA,[1]; participant 5557,23.33
same,TAR,[1]; participant 5557,83.93
same,TatRev,[1]; participant 5557,0
same,LLTR/TAR,[1]; participant 5557,0.6507
same,PolyA/LLTR,[1]; participant 5557,0.4272
same,Total live cell numbers (proliferation) compared with activated DMSO (in words),PBMCs,did not change proliferation rates
same,Fig 6B: total live cells relative to DMSO+CD3/28,PBMCs; participant 150b,68
same,Fig 6B: total live cells relative to DMSO+CD3/28,PBMCs; participant 1379,22.5
same,Fig 6B: total live cells relative to DMSO+CD3/28,PBMCs; participant 2027,98.18
same,Fig 6B: total live cells relative to DMSO+CD3/28,PBMCs; participant 2147a,103.96
same,Fig 6B: total live cells relative to DMSO+CD3/28,PBMCs; participant 2147b,121.98
same,Fig 6B: total live cells relative to DMSO+CD3/28,PBMCs; participant 2161,132.2
same,Fig 6B: total live cells relative to DMSO+CD3/28,PBMCs; participant 2256,89.47
same,Fig 6B: total live cells relative to DMSO+CD3/28,PBMCs; participant 2461,80.23
same,Fig 6B: total live cells relative to DMSO+CD3/28,PBMCs; participant 5557,117.65
same,Total number of live cells (Fig 6A),PBMCs; study participant 1379,82.06 % of activated DMSO
same,Total number of live cells (Fig 6A),PBMCs; study participant 2027,34.68 % of activated DMSO
same,Total number of live cells (Fig 6A),PBMCs; study participant 2147a,115.89 % of activated DMSO
same,Total number of live cells (Fig 6A),PBMCs; study participant 2147b,188.02 % of activated DMSO
same,Total number of live cells (Fig 6A),PBMCs; study participant 2161,72.75 % of activated DMSO
same,Total number of live cells (Fig 6A),PBMCs; study participant 2256,87.5 % of activated DMSO
same,Total number of live cells (Fig 6A),PBMCs; study participant 2461,32.33 % of activated DMSO
same,Total number of live cells (Fig 6A),PBMCs; study participant 5557,99.29 % of activated DMSO
COc1ccc(-c2cc(=O)c3c(O)cc(O)c(-c4cc(-c5cc(=O)c6c(O)cc(O)cc6o5)ccc4OC)c3o2)cc1 [isoginkgetin],LLTR/TAR,[1]; participant 150b,0.8798
same,PolyA/LLTR,[1]; participant 150b,1.092
same,TatRev/PolyA,[1]; participant 150b,1.01
same,LLTR/TAR,[1]; participant 1379,1.373
same,PolyA/LLTR,[1]; participant 1379,0.4663
same,LLTR/TAR,[1]; participant 2027,0.7253
same,PolyA/LLTR,[1]; participant 2027,0.8811
same,LLTR/TAR,[1]; participant 2147a,0.06726
same,PolyA/LLTR,[1]; participant 2147a,1.437
same,TatRev/PolyA,[1]; participant 2147a,0.8892
same,LLTR/TAR,[1]; participant 2161,0.6564
same,PolyA/LLTR,[1]; participant 2161,0.57
same,LLTR/TAR,[1]; participant 2256,1.751
same,PolyA/LLTR,[1]; participant 2256,0.07578
same,LLTR/TAR,[1]; participant 2461,1.166
same,PolyA/LLTR,[1]; participant 2461,0.2875
same,LLTR/TAR,[1]; participant 2747,0
same,LLTR/TAR,[1]; participant 5557,0.8133
same,PolyA/LLTR,[1]; participant 5557,0.9591
same,TatRev/PolyA,[1]; participant 5557,0.5795
same,Total live cell numbers (proliferation) compared with activated DMSO (in words),PBMCs,significantly lower
